Results published in US20230416225A1, “DIAMINOPYRIMIDINE CARBOXAMIDE INHIBITORS OF HPK1” (MERCK SHARP & DOHME LLC, priority 2020, published 2023).
pIC50: −log10 of the molar value.

Target: T1, Human HPK1, catalytic domain (Homo sapiens, UniProt Q92918)
T1 construct: purchased Carna
T1 sequence (Q92918 1-346): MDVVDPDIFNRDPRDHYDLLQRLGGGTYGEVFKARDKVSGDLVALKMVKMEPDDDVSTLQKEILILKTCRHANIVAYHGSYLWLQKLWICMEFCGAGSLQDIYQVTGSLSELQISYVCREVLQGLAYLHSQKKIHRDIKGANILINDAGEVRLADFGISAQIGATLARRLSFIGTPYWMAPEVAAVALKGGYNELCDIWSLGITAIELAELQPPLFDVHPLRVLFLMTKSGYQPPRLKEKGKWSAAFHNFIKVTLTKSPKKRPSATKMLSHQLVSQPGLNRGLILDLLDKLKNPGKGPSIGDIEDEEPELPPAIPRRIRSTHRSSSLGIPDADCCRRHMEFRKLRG
Experiment: HPK1-SLP76 TR-FRET assay
Assay type: biochemical
Settings: 75 pM HPK1, 10 uM ATP, 10 nM SLP76, 30 min compound pre-incubation

Structure (SMILES) | pIC50
COCCOCCOCC(=O)N1CCc2cc(OC)c(Nc3ncc(C(N)=O)c(Nc4ccccc4Br)n3)cc2C1 [Example 12-1, 4-[(2-bromophenyl)amino]-2-[(6-methoxy-2-{[2-(2-methoxyethoxy)ethoxy)accetyl}-1,2,3,4-tetrahydroisoquinolin-7-yl)amino]pyrimidine-5-carboxamide] | 6.93
COc1cc2c(cc1Nc1ncc(C(N)=O)c(NC3CCc4cccc(OC)c43)n1)CN(C)CC2 (stereo not drawn) [Example 26-34, 4-[(7-methoxy-2,3-dihydro-1H-inden-1-yl)amino]-2-[(6-methoxy-2-methyl-1,2,3,4-tetrahydroisoquinolin-7-yl)amino]pyrimidine-5-carboxamide] | 8.02
NC(=O)c1cnc(Nc2cccc3c2CCC3)nc1Nc1cccc2c1CCNC2=O [Example 25-34, 2-[(2,3-dihydro-1H-inden-4-yl)amino]-4-[(1-oxo-1,2,3,4-tetrahydroisoquinolin-5-yl)amino]pyrimidine-5-carboxamide] | 7.61
COc1cc2c(cc1Nc1ncc(C(N)=O)c(N[C@H]3CC[C@@H](N(C)C)CC3)n1)CN(C)CC2 [Example 26-17, 4-{[cis-4-(dimethylamino)cyclohexyl]amino}-2-[(6-methoxy-2-methyl-1,2,3,4-tetrahydroisoquinolin-7-yl)amino]pyrimidine-5-carboxamide] | 7.22
COc1cc2c(cc1Nc1ncc(C(N)=O)c(Nc3ccccc3Br)n1)CN(S(=O)(=O)C1CC1)CC2 [Example 10-8, 4-[(2-bromophenyl)amino]-2-{[2-(cyclopropylsulfonyl)-6-methoxy-1,2,3,4-tetrahydroisoquinolin-7-yl]amino}pyrimidine-5-carboxamide] | 6.07
NC(=O)c1cnc(Nc2cccc3sccc23)nc1Nc1cccc2c1CCNC2=O [Example 25-43, 2-[(1-benzothiophen-4-yl)amino]-4-[(1-oxo-1,2,3,4-tetrahydroisoquinolin-5-yl)amino]pyrimidine-5-carboxamide] | 7.11
COc1ccc(Cl)cc1Nc1ncc(C(N)=O)c(Nc2cccc3c2CCNC3=O)n1 [Example 25-33, 2-[(5-chloro-2-methoxyphenyl)amino]-4-[(1-oxo-1,2,3,4-tetrahydroisoquinolin-5-yl)amino]pyrimidine-5-carboxamide] | 6.73
COc1cc2c(cc1Nc1ncc(C(N)=O)c(N[C@H](CO)C3CCCCC3)n1)CN(C)CC2 [Example 26-48, 4-{[(1S)-1-cyclohexyl-2-hydroxyethyl]amino}-2-[(6-methoxy-2-methyl-1,2,3,4-tetrahydroisoquinolin-7-yl)amino]pyrimidine-5-carboxamide] | 7.64
COc1cc(C(=O)N2CCN(C)CC2)ccc1Nc1ncc(C(N)=O)c(Nc2ccccc2C(F)(F)F)n1 [Example 11-1, 2-((2-methoxy-4-(4-methylpiperazine-1-carbonyl)phenyl)amino)-4-((2-(trifluoromethyl)phenyl)amino)pyrimidine-5-carboxamide] | 6.06
COc1cc2c(cc1Nc1ncc(C(N)=O)c(N[C@@H]3CCCC[C@H]3C(C)(C)O)n1)CN(C)CC2 [Example 26-42, 4-{[(1R,2R)-2-(2-hydroxypropan-2-yl)cyclohexyl]amino}-2-[(6-methoxy-2-methyl-1,2,3,4-tetrahydroisoquinolin-7-yl)amino]pyrimidine-5-carboxamide] | 6.69
COc1cc2c(cc1Nc1ncc(C(N)=O)c(NC3C4CCC3CNC4)n1)CN(C)CC2 (stereo not drawn) [Example 26-30, 4-[(3-azabicyclo[3.2.1]octan-8-yl)amino]-2-[(6-methoxy-2-methyl-1,2,3,4-tetrahydroisoquinolin-7-yl)amino]pyrimidine-5-carboxamide] | 7.54
CNC(=O)c1cccc(Nc2nc(Nc3cc4c(cc3Cl)CCN(C)C4)ncc2C(N)=O)c1 [Example 7-39, 2-[(6-chloro-2-methyl-1,2,3,4-tetrahydroisoquinolin-7-yl)amino]-4-{[3-(methylcarbamoyl)phenyl]amino} pyrimidine-5-carboxamide] | 7.24
COc1cc2c(cc1Nc1ncc(C(N)=O)c(Nc3cc(C4CC4)nn3C)n1)CN(C)CC2 [Example 7-82, 4-((3-cyclopropyl-1-methyl-1H-pyrazol-5-yl)amino)-2-((6-methoxy-2-methyl-1,2,3,4-tetrahydroisoquinolin-7-yl)amino)pyrimidine-5-carboxamide] | 6.19
NC(=O)c1cnc(Nc2cc(F)cc(F)c2)nc1Nc1cccc2c1CCNC2=O [Example 25-31, 2-[(3,5-difluorophenyl)amino]-4-[(1-oxo-1,2,3,4-tetrahydroisoquinolin-5-yl)amino]pyrimidine-5-carboxamide] | 7.53

Now those with a higher pIC50, led by results:

pIC50 | Structure (SMILES)
8.83 | COc1cc2c(cc1Nc1ncc(C(N)=O)c(Nc3cccc(Br)c3)n1)CN(C)CC2 [Example 7-71, 4-[(3-bromophenyl)amino]-2-[(6-methoxy-2-methyl-1,2,3,4-tetrahydroisoquinolin-7-yl)amino]pyrimidine-5-carboxamide]
9.01 | CN1CCc2cc(F)c(Nc3ncc(C(N)=O)c(NC4CCc5cc(F)c(F)cc54)n3)cc2C1 (stereo not drawn) [Example 26-54, 4-[(5,6-difluoro-2,3-dihydro-1H-inden-1-yl)amino]-2-[(6-fluoro-2-methyl-1,2,3,4-tetrahydroisoquinolin-7-yl)amino]pyrimidine-5-carboxamide]
8.56 | COc1cc2c(cc1Nc1ncc(C(N)=O)c(Nc3ccccc3C(=O)NC3CC3)n1)CN(C)CC2 [Example 7-118, 4-((2-(cyclopropylcarbamoyl)phenyl)a-mino)-2-((6-methoxy-2-methyl-1,2,3,4-tetrahydroisoquinolin-7-yl)amino)pyrimidine-5-carboxamide]
8.91 | NC(=O)c1cnc(Nc2cccc(C3CC3)c2)nc1Nc1cccc2c1CCNC2=O [Example 25-25, 2-[(3-cyclopropylphenyl)amino]-4-[(1-oxo-1,2,3,4-tetrahydroisoquinolin-5-yl)amino]pyrimidine-5-carboxamide]
10.15 | COc1cc2c(cc1Nc1ncc(C(N)=O)c(Nc3ccccc3CC(F)(F)F)n1)CN(C)CC2 [Example 7-98, 2-[(6-methoxy-2-methyl-1,2,3,4-tetrahydroisoquinolin-7-yl)amino]-4-{[2-(2,2,2-trifluoroethyl)phenyl]amino}pyri-midine-5-carboxamide]
10.00 | COc1cc2c(cc1Nc1ncc(C(N)=O)c(Nc3c(F)ccc(C)c3Cl)n1)CN(C)CC2 [Example 4-16]
8.62 | COc1cc2c(cc1Nc1ncc(C(N)=O)c(Nc3cccc(C#N)c3F)n1)CN(C)CC2 [Example 7-30, 4-[(3-cyano-2-fluorophenyl)amino]-2-[(6-methoxy-2-methyl-1,2,3,4-tetrahydroisoquinolin-7-yl)amino]pyrimidine-5-carboxamide]
9.59 | COc1cc2c(cc1Nc1ncc(C(N)=O)c(Nc3ccccc3-c3nccs3)n1)CN(C)CC2 [Example 14-2, 2-[(6-methoxy-2-methyl-1,2,3,4-tetrahydroisoquinolin-7-yl)amino]-4-{[2-(1,3-thiazol-2-yl)phenyl]amino}pyrimidine-5-carboxamide]
9.28 | COc1cc(F)c(Nc2nc(Nc3cc4c(cc3OC)CCN(C)C4)ncc2C(N)=O)c(F)c1 [Example 4-15, 4-[(2,6-difluoro-4-methoxyphenyl)amino]-2-[(6-methoxy-2-methyl-1,2,3,4-tetrahydroisoquinolin-7-yl)amino]pyrimidine-5-carboxamide]
8.84 | COc1cc2c(cc1Nc1ncc(C(N)=O)c(NC(C)c3ccccc3C(F)(F)F)n1)CN(C)CC2 (stereo not drawn) [Example 26-22, 2-[(6-methoxy-2-methyl-1,2,3,4-tetrahydroisoquinolin-7-yl)amino]-4-({1-[2-(trifluoromethyl)phenyl]ethyl}amino)pyrimidine-5-carboxamide]
9.55 | COc1cc2c(cc1Nc1ncc(C(N)=O)c(Nc3ccccc3C(F)(F)F)n1)CN(C)C(C)C2 (racemic) [Example 23-3, (RAC)-2-((6-methoxy-2,3-dimethyl-1,2,3,4-tetrahydroisoquinolin-7-yl)amino)-4-((2-(trifluoromethyl)phenyl)amino)pyrimidine-5-carboxamide]
10.05 | COc1cc2c(cc1Nc1ncc(C(N)=O)c(Nc3ccccc3Br)n1)CNCC2 [Example 9-1, 4-[(2-bromophenyl)amino]-2-[(6-methoxy-1,2,3,4-tetrahydroisoquinolin-7-yl)amino]pyrimidine-5-carboxamide]
8.88 | COc1cc2c(cc1Nc1ncc(C(N)=O)c(NC3C4CC3C4)n1)CN(C)CC2 (stereo not drawn) [Example 26-4, 4-[(bicyclo[1.1.1]pentan-2-yl)amino]-2-[(6-methoxy-2-methyl-1,2,3,4-tetrahydroisoquinolin-7-yl)amino]pyrimidine-5-carboxamide]
9.29 | COc1cc2c(cc1Nc1ncc(C(N)=O)c(Nc3ccc(F)cc3)n1)CN(C)CC2 [Example 7-21, 4-[(4-fluorophenyl)amino]-2-[(6-methoxy-2-methyl-1,2,3,4-tetrahydroisoquinolin-7-yl)amino]pyrimidine-5-carboxamide]
9.59 | COc1cc2c(cc1Nc1ncc(C(N)=O)c(NC3CCCCCC3)n1)CN(C)CC2 [Example 26-1, 4-(cycloheptylamino)-2-[(6-methoxy-2-methyl-1,2,3,4-tetrahydroisoquinolin-7-yl)amino]pyrimidine-5-carboxamide]
8.74 | COc1cc2c(cc1Nc1ncc(C(N)=O)c(Nc3c(F)cc(I)cc3F)n1)CNCC2 [Example 9-12, 4-(2,6-difluoro-4-iodoanilino)-2-[(6-methoxy-1,2,3,4-tetrahydroisoquinolin-7-yl)amino]pyrimidine-5-carboxamide]
